{
  "source": "patent US8466104B2",
  "about": "“Therapeutically active alpha MSH analogues” (AbbVie Inc., priority 2005, dated 2013)",
  "system": "LPS induced cytokine release and pulmonary hypertension in pigs",
  "test": "Inhibition of LPS induced cytokine release and pulmonary hypertension in pigs in vivo (experimental setup 4)",
  "set-up": "species or system pig",
  "settings": "200 μg/kg single iv bolus",
  "method": "Inhibition of LPS Induced Cytokine Release and Pulmonary Hypertension in Pigs in vivo.\nFemale Landrace pigs (˜30 kg) are fasted overnight but allowed free access to water. Then the pigs are premedicated with intramuscular ketamine (10 mg/kg) and midazolam (0.25 mg/kg). Anesthesia is induced with intravenous ketamine (5 mg/kg). The pigs are orally intubated, and anesthesia is maintained with a continuous intravenous infusion of fentanyl (60 μg/kg/h and midazolam (6 mg/kg/h). The animals are ventilated with a volume-controlled ventilator (Servo 900 ventilator; Siemens Elema, Solna, Sweden) with a positive end-expiratory pressure of 5 cm H2O. Tidal volume is kept at 10-15 ml/kg, and the respiratory rate adjusted (20-25 breaths/min) to maintain normocapnia (arterial carbon dioxide tension [PaCO2] in the range of 34-45 mmHg). Ventilation is performed with oxygen in air aimed tot reach an arterial oxygen tension (PaO2) higher than 105 mmHg. One arterial and 2 venous sheaths are placed in the carotid artery and corresponding veins for infusion, blood pressure measurements through fluid filled catheter, blood sampling and for introducing catheters.\nLocalization of the balloon-tipped catheter is determined by observing the characteristic pressure trace on the monitor as it is advance through the right side of the heart into the pulmonary artery as well as by x-ray. […]",
  "data": [
    {"substance": "Ac-Lys-Lys-Lys-Lys-Lys-Lys-Ser-Tyr-Ser-Met-Glu-His-Phe-Arg-Trp-Gly-Lys-Pro-Val-NH2 (Ac-KKKKKKSYSMEHFRWGKPV-NH2) [a-MSH analogue #1]", "values": [
      {"measurement": "plasma concentrations of TNFa after LPS infusion", "value": "marked reduction in plasma concentrations of TNFa"},
      {"measurement": "maximal increase in pulmonary artery pressure (PAP)", "setting": "LPS infusion", "value": "8±2", "unit": "mmHg"}
    ]}
  ]
}
